Data taken from ChEMBL document CHEMBL1201862, “PubChem BioAssay data set” (2004).
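Interpolation was linear, between the two tested concentrations surrounding the appropriate level; five concentrations were tested over 48 hours in 96-well plates. Here, GI50 denotes the concentration required for 50% inhibition of growth.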 Calls of active or inactive are those of the source. Cut-off read from the data, not from the text of the source: active = GI50 up to about 1.1 µM and inactive = higher.

Experiments:
Assay in all cases: NCI anticancer screen, dose series, 48 h
A549 = tested on: A549
NCI-H460 = tested on: NCI-H460
UO-31 = tested on: UO-31
MCF7 = tested on: MCF7
Hs-578T = tested on: Hs-578T
SK-MEL-2 = tested on: SK-MEL-2
UACC-257 = tested on: UACC-257
SNB-19 = tested on: SNB-19
OVCAR-4 = tested on: OVCAR-4
NCI-H522 = tested on: NCI-H522
SF-268 = tested on: SF-268
MDA-MB-231 = tested on: MDA-MB-231
HCC 2998 = tested on: HCC 2998
SNB-75 = tested on: SNB-75
PC-3 = tested on: PC-3
786-0 = tested on: 786-0
EKVX = tested on: EKVX
HOP-62 = tested on: HOP-62
TK-10 = tested on: TK-10
HOP-92 = tested on: HOP-92
U-251 = tested on: U-251
ACHN = tested on: ACHN
MDA-N = tested on: MDA-N
MDA-MB-435 = tested on: MDA-MB-435
IGROV-1 = tested on: IGROV-1
CCRF-CEM = tested on: CCRF-CEM
OVCAR-3 = tested on: OVCAR-3
SK-MEL-28 = tested on: SK-MEL-28
SW-620 = tested on: SW-620
DU-145 = tested on: DU-145
T47D = tested on: T47D
RPMI-8226 = tested on: RPMI-8226
SK-MEL-5 = tested on: SK-MEL-5
M14 = tested on: M14
SF-539 = tested on: SF-539
SF-295 = tested on: SF-295
MOLT-4 = tested on: MOLT-4
HT-29 = tested on: HT-29
KM12 = tested on: KM12
COLO 205 = tested on: COLO 205
OVCAR-8 = tested on: OVCAR-8
NCI-H23 = tested on: NCI-H23
BT-549 = tested on: BT-549
HCT-116 = tested on: HCT-116
HL-60 = tested on: HL-60
HCT-15 = tested on: HCT-15
OVCAR-5 = tested on: OVCAR-5
LOX IMVI = tested on: LOX IMVI
SR = tested on: SR
SN12C = tested on: SN12C
UACC-62 = tested on: UACC-62
CAKI-1 = tested on: CAKI-1
NCI/ADR-RES = tested on: NCI/ADR-RES
RXF 393 = tested on: RXF 393
NCI-H226 = tested on: NCI-H226
Malme-3M = tested on: Malme-3M
SK-OV-3 = tested on: SK-OV-3
K562 = tested on: K562

For `COC(=O)c1c(OC)cc2cc3c(c(O)c2c1C)C(=O)C1(O)C(=O)C=C(OC)C(OC(=O)CC(C)N)=C1C3=O` (centres undefined), the GI50 (A549) was 18.6 µM (inactive), the GI50 (NCI-H460) was 7.05 µM (inactive) and the GI50 (UO-31) was 18.7 µM (inactive). The GI50 (MCF7) was 15.6 µM (inactive), the GI50 (Hs-578T) was 7.52 µM (inactive) and the GI50 (SK-MEL-2) was 15.2 µM (inactive). The GI50 (UACC-257) was 19.4 µM (inactive), the GI50 (SNB-19) was 6.41 µM (inactive) and the GI50 (OVCAR-4) was 18.3 µM (inactive). For the same molecule, the GI50 (NCI-H522) was 12.1 µM (inactive), the GI50 (SF-268) was 16.5 µM (inactive) and the GI50 (MDA-MB-231) was 8.47 µM (inactive). The GI50 (HCC 2998) was 6.68 µM (inactive), the GI50 (SNB-75) was 2.54 µM (inactive) and the GI50 (PC-3) was 20.9 µM (inactive). The GI50 (786-0) was 13.6 µM (inactive), the GI50 (EKVX) was 20 µM (inactive) and the GI50 (HOP-62) was 29 µM (inactive). For the same molecule, the GI50 (TK-10) was 22.1 µM (inactive), the GI50 (HOP-92) was 18.2 µM (inactive) and the GI50 (U-251) was 33.5 µM (inactive). The GI50 (ACHN) was 8.65 µM (inactive), the GI50 (MDA-N) was > 100 µM (inactive) and the GI50 (MDA-MB-435) was 41.2 µM (inactive). The GI50 (IGROV-1) was 13.6 µM (inactive), the GI50 (CCRF-CEM) was 4.74 µM (inactive) and the GI50 (OVCAR-3) was 22.6 µM (inactive). The GI50 (SK-MEL-28) was 31.3 µM (inactive), the GI50 (SW-620) was 37.7 µM (inactive) and the GI50 (DU-145) was 11.6 µM (inactive). The GI50 (T47D) was 20.9 µM (inactive), the GI50 (RPMI-8226) was 7.6 µM (inactive) and the GI50 (SK-MEL-5) was 26.9 µM (inactive). The GI50 (M14) was 32.7 µM (inactive), the GI50 (SF-539) was 8.59 µM (inactive) and the GI50 (SF-295) was 7.69 µM (inactive). For the same molecule, the GI50 (MOLT-4) was 5.32 µM (inactive), the GI50 (HT-29) was 4.88 µM (inactive) and the GI50 (KM12) was 5.64 µM (inactive). The GI50 (COLO 205) was > 100 µM (inactive), the GI50 (OVCAR-8) was 11.9 µM (inactive) and the GI50 (NCI-H23) was 8.95 µM (inactive). For the same molecule, the GI50 (BT-549) was 34.7 µM (inactive), the GI50 (HCT-116) was 4.28 µM (inactive) and the GI50 (HL-60) was 16.4 µM (inactive). The GI50 (HCT-15) was 17.3 µM, the GI50 (OVCAR-5) was 87.3 µM (inactive) and the GI50 (LOX IMVI) was 8.49 µM (inactive). For the same molecule, the GI50 (SR) was 12.9 µM (inactive), the GI50 (SN12C) was > 100 µM (inactive) and the GI50 (UACC-62) was 17.1 µM (inactive). The GI50 (CAKI-1) was 14.2 µM (inactive) and the GI50 (NCI/ADR-RES) was 23.2 µM (inactive).
`CCSCC(=O)N1CCc2c([nH]c3ccccc23)C1=O` was tested, and the GI50 (RXF 393) was > 100 µM (inactive), the GI50 (A549) was > 100 µM (inactive) and the GI50 (NCI-H460) was > 100 µM (inactive). For the same molecule, the GI50 (UO-31) was > 100 µM (inactive), the GI50 (MCF7) was 96.6 µM (inactive) and the GI50 (Hs-578T) was 23.2 µM (inactive). The GI50 (SK-MEL-2) was > 100 µM (inactive), the GI50 (UACC-257) was 71.4 µM (inactive) and the GI50 (SNB-19) was > 100 µM (inactive). For the same molecule, the GI50 (OVCAR-4) was > 100 µM (inactive), the GI50 (NCI-H522) was 64.4 µM (inactive) and the GI50 (SF-268) was > 100 µM (inactive). The GI50 (MDA-MB-231) was > 100 µM (inactive), the GI50 (NCI-H226) was > 100 µM (inactive) and the GI50 (HCC 2998) was > 100 µM (inactive). The GI50 (SNB-75) was 78 µM (inactive), the GI50 (PC-3) was > 100 µM (inactive) and the GI50 (786-0) was > 100 µM (inactive). For the same molecule, the GI50 (EKVX) was 12.6 µM (inactive), the GI50 (HOP-62) was > 100 µM (inactive) and the GI50 (TK-10) was > 100 µM (inactive). The GI50 (HOP-92) was 22.9 µM (inactive), the GI50 (U-251) was > 100 µM (inactive) and the GI50 (ACHN) was > 100 µM (inactive). The GI50 (MDA-N) was > 100 µM (inactive), the GI50 (MDA-MB-435) was > 100 µM (inactive) and the GI50 (IGROV-1) was > 100 µM (inactive). The GI50 (Malme-3M) was > 100 µM (inactive), the GI50 (CCRF-CEM) was > 100 µM (inactive) and the GI50 (OVCAR-3) was > 100 µM (inactive). For the same molecule, the GI50 (SK-MEL-28) was > 100 µM (inactive), the GI50 (SW-620) was > 100 µM (inactive) and the GI50 (DU-145) was > 100 µM (inactive). For the same molecule, the GI50 (T47D) was > 100 µM (inactive), the GI50 (SK-MEL-5) was > 100 µM (inactive) and the GI50 (SK-OV-3) was > 100 µM (inactive). The GI50 (M14) was > 100 µM (inactive), the GI50 (SF-539) was > 100 µM (inactive) and the GI50 (SF-295) was > 100 µM (inactive). For the same molecule, the GI50 (MOLT-4) was > 100 µM (inactive), the GI50 (HT-29) was > 100 µM (inactive) and the GI50 (KM12) was > 100 µM (inactive). The GI50 (COLO 205) was > 100 µM (inactive), the GI50 (OVCAR-8) was > 100 µM (inactive) and the GI50 (NCI-H23) was > 100 µM (inactive). The GI50 (BT-549) was > 100 µM (inactive), the GI50 (K562) was > 100 µM (inactive) and the GI50 (HCT-116) was > 100 µM (inactive). The GI50 (HL-60) was > 100 µM (inactive), the GI50 (HCT-15) was greater than 100 µM and the GI50 (OVCAR-5) was 91 µM (inactive). The GI50 (LOX IMVI) was > 100 µM (inactive), the GI50 (SR) was > 100 µM (inactive) and the GI50 (SN12C) was > 100 µM (inactive). The GI50 (UACC-62) was 97.5 µM (inactive), the GI50 (CAKI-1) was > 100 µM (inactive) and the GI50 (NCI/ADR-RES) was > 100 µM (inactive).
With `COc1ccc(-c2c3c(n(C4OC(CO)C(O)C(O)C4O)c(=S)c2C#N)CCC3)cc1` (centres undefined) the GI50 (RXF 393) was 22.4 µM (inactive), the GI50 (A549) was 68.9 µM (inactive) and the GI50 (NCI-H460) was 45.2 µM (inactive). For the same molecule, the GI50 (UO-31) was > 100 µM (inactive), the GI50 (MCF7) was 37.6 µM (inactive) and the GI50 (Hs-578T) was 38.7 µM (inactive). For the same molecule, the GI50 (SK-MEL-2) was 58.5 µM (inactive), the GI50 (UACC-257) was > 100 µM (inactive) and the GI50 (SNB-19) was 37.7 µM (inactive). For the same molecule, the GI50 (OVCAR-4) was 79.1 µM (inactive), the GI50 (SF-268) was 62.8 µM (inactive) and the GI50 (MDA-MB-231) was > 100 µM (inactive). The GI50 (HCC 2998) was 66.2 µM (inactive), the GI50 (SNB-75) was 59.4 µM (inactive) and the GI50 (PC-3) was 41.3 µM (inactive). The GI50 (786-0) was 36 µM (inactive), the GI50 (HOP-62) was 40 µM (inactive) and the GI50 (TK-10) was > 100 µM (inactive). For the same molecule, the GI50 (HOP-92) was 28.6 µM (inactive), the GI50 (U-251) was 37.1 µM (inactive) and the GI50 (ACHN) was 38.5 µM (inactive). For the same molecule, the GI50 (MDA-N) was 53.8 µM (inactive), the GI50 (MDA-MB-435) was 33.3 µM (inactive) and the GI50 (IGROV-1) was 48.6 µM (inactive). The GI50 (Malme-3M) was 57.8 µM (inactive), the GI50 (CCRF-CEM) was 32.6 µM (inactive) and the GI50 (OVCAR-3) was 25.7 µM (inactive). The GI50 (SK-MEL-28) was 35.1 µM (inactive), the GI50 (SW-620) was 71.9 µM (inactive) and the GI50 (DU-145) was 66.7 µM (inactive). The GI50 (T47D) was 44.9 µM (inactive), the GI50 (RPMI-8226) was 49.5 µM (inactive) and the GI50 (SK-MEL-5) was 14.8 µM (inactive). The GI50 (SK-OV-3) was 91.4 µM (inactive), the GI50 (M14) was 36.2 µM (inactive) and the GI50 (SF-539) was 20.4 µM (inactive). For the same molecule, the GI50 (SF-295) was 31.9 µM (inactive), the GI50 (MOLT-4) was 28.8 µM (inactive) and the GI50 (HT-29) was 40.1 µM (inactive). The GI50 (KM12) was 59.3 µM (inactive), the GI50 (COLO 205) was 68.9 µM (inactive) and the GI50 (NCI-H23) was 28.7 µM (inactive). For the same molecule, the GI50 (BT-549) was 51.2 µM (inactive), the GI50 (K562) was 41.9 µM (inactive) and the GI50 (HCT-116) was 49.2 µM (inactive). For the same molecule, the GI50 (HL-60) was 34.7 µM (inactive), the GI50 (HCT-15) was 85.7 µM and the GI50 (OVCAR-5) was 74.6 µM (inactive). For the same molecule, the GI50 (LOX IMVI) was 42.1 µM (inactive), the GI50 (SR) was 38.4 µM (inactive) and the GI50 (SN12C) was 37 µM (inactive). The GI50 (UACC-62) was 42 µM (inactive), the GI50 (CAKI-1) was > 100 µM (inactive) and the GI50 (NCI/ADR-RES) was > 100 µM (inactive).
